According to patent publication US10508120B2, “TYK2 inhibitors and uses thereof” (Nimbus Lakshmi, Inc., priority 2017, dated 2019):
Read-outs that look alike come from different tables or passages of the source.

Experiments:
Tyk2 kinase domain (DH1) = Tyk2 kinase domain (DH1) (Homo sapiens (Human), UniProt P29597); test: Tyk2 Radioactive Kinase Assay; type: biochemical; settings: for inhibition at 10 µM: read-out: Tyk2 JH1% Inhibition @ 10 μM
Procedure, shortened: (§1)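 Read-out is percent inhibition from a radioactive kinase reaction, measured with compound at 10 μM.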

JAK2 kinase domain (JH1) = JAK2 kinase domain (JH1) (Homo sapiens (Human), UniProt O60674); test: JAK2 Radioactive Kinase Assay; type: biochemical; settings: for inhibition at 10 µM: read-out: JAK2 JH1% Inhibition @ 10 μM
Procedure, shortened: as §1

[1] = biological target: human TYK2 (JH2domain-pseudokinase) (Homo sapiens (Human), UniProt P29597); test: TYK2 JH2 Domain Binding Assay (KINOMEscan)
Procedure, shortened: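 Competition binding of a DNA-tagged fusion of human TYK2 JH2 pseudokinase (G556–D888) with NFkB DNA-binding domain, from HEK293 extracts (<0.1 nM final), against immobilised ligand beads; 1 h shaking at room temperature, 0.9% DMSO. Bound kinase quantified by qPCR.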

Sequence of human TYK2 (JH2domain-pseudokinase) (P29597 556-888): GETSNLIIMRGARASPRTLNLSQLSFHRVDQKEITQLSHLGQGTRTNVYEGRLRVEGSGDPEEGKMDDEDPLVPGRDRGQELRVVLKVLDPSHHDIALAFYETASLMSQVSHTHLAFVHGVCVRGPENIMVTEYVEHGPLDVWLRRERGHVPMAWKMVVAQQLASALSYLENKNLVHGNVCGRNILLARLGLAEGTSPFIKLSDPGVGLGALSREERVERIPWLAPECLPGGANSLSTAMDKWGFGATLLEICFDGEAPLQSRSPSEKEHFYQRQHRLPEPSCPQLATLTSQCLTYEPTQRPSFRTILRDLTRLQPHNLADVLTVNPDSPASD
Sequence of JAK2 kinase domain (JH1) (O60674 849-1124): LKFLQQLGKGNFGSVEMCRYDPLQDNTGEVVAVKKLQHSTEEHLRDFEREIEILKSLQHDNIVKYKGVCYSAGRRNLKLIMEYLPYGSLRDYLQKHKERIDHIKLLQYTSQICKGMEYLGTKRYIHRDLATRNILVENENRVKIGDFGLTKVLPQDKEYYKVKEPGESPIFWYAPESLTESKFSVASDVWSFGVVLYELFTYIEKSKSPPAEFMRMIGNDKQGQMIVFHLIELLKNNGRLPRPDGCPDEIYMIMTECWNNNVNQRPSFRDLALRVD
Sequence of Tyk2 kinase domain (DH1) (P29597 897-1176): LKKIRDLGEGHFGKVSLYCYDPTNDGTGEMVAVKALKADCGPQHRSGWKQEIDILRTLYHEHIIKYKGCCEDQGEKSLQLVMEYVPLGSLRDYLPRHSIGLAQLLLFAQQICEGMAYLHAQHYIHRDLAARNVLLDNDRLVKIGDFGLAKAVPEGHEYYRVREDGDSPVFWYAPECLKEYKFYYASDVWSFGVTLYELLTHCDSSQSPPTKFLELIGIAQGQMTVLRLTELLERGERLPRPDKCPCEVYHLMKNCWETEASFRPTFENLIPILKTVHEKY

Compound | inhibition at 10 µM (Tyk2 kinase domain (DH1); compound at 10 μM, ATP 10 μM) [%] | inhibition at 10 µM (JAK2 kinase domain (JH1); compound at 10 μM, ATP 10 μM) [%] | Kd [1] [nM] | inhibition at 10 µM (Tyk2 kinase domain (DH1); 10 μM compound, 10 μM ATP) [%] | inhibition at 10 µM (JAK2 kinase domain (JH1); 10 μM compound, 10 μM ATP) [%] | Tyk2 JH1% Inhibition @ 10 μM (Tyk2 kinase domain (DH1); compound at 10 μM, ATP 10 μM) | JAK2 JH1% Inhibition @ 10 μM (JAK2 kinase domain (JH1); compound at 10 μM, ATP 10 μM)
CNc1cc(Nc2cccn(-c3ccc(C(=O)N4CCCC4)cn3)c2=O)nc2c(C(=O)NC3CC3)cnn12 [I-129] | < 50 | < 50 | < 0.2 |  |  |  | 
Cc1cc(-n2cccc(Nc3cc(N)n4ncc(C(N)=O)c4n3)c2=O)no1 [I-64] | < 50 | < 50 | 0.2 to 1 |  |  |  | 
CNc1cc(Nc2cc(Cl)cnc2O[C@H]2C[C@H](OC)C2)nc2c(C(N)=O)cnn12 [I-111] | < 50 | < 50 | 0.2 to 1 |  |  |  | 
CNc1cc(Nc2cccn(-c3ccc(OC)cn3)c2=O)nc2c(C(=O)NC3CC3)cnn12 [I-264] | < 50 | < 50 | 0.2 to 1 |  |  |  | 
CNc1cc(Nc2cc(C)cn(-c3ccnn3C)c2=O)nc2c(C(N)=O)cnn12 [I-75] | < 50 | < 50 | 0.2 to 1 |  |  |  | 
CNc1cc(Nc2cccn(-c3nccs3)c2=O)nc2c(C(=O)NC3CC3)cnn12 [I-157] | < 50 | < 50 | < 0.2 |  |  |  | 
CNc1cc(-c2cn(C(C)C)c3ncc(C)cc23)nc2c(C(=O)N[C@H]3C[C@H]3F)cnn12 [I-257] | < 50 | < 50 | 0.2 to 1 |  |  |  | 
CNc1cc(Nc2cccn(-c3cccc(C)n3)c2=O)nc2c(C(=O)NC3CCC3)cnn12 [I-130, N-cyclobutyl-5-((6′-methyl-2-oxo-2H-[1,2′-bipyridin]-3-yl)amino)-7-(methylamino)pyrazolo[1,5-a]pyrimidine-3-carboxamide] | < 50 | < 50 | < 0.2 |  |  |  | 
CNc1cc(Nc2cc(C)cnc2OC2CC2)nc2c(C(=O)N[C@H]3C[C@H]3F)cnn12 [I-279] | < 50 | < 50 | < 0.2 |  |  |  | 
Cc1cc(C)cc(Nc2cc(N)n3ncc(C(N)=O)c3n2)c1 [I-21] | < 50 | 70 to 90 | 0.2 to 1 |  |  |  | 
CNc1cc(Nc2cc(Cl)cn(-c3cn(C4CC4)nc3C)c2=O)nc2c(C(N)=O)cnn12 [I-178] | < 50 | < 50 | 0.2 to 1 |  |  |  | 
CNc1cc(Nc2cc(C)cnc2OC)nc2c(C(=O)NCC(C)(C)CO)cnn12 [I-270] | < 50 | < 50 | 0.2 to 1 |  |  |  | 
Cc1cc(Nc2cc(N)n3ncc(C(N)=O)c3n2)cc(N2CC[C@@H](O)C2)n1 [I-56] | < 50 | < 50 | > 10 |  |  |  | 
CNc1cc(Nc2cccn(-c3ccnc(C)n3)c2=O)nc2c(C(N)=O)cnn12 [I-51] | < 50 | < 50 | 0.2 to 1 |  |  |  | 

More lines, main results first:

inhibition at 10 µM (Tyk2 kinase domain (DH1); compound at 10 μM, ATP 10 μM) [%] | inhibition at 10 µM (JAK2 kinase domain (JH1); compound at 10 μM, ATP 10 μM) [%] | Kd [1] [nM] | inhibition at 10 µM (Tyk2 kinase domain (DH1); 10 μM compound, 10 μM ATP) [%] | inhibition at 10 µM (JAK2 kinase domain (JH1); 10 μM compound, 10 μM ATP) [%] | Compound | Tyk2 JH1% Inhibition @ 10 μM (Tyk2 kinase domain (DH1); compound at 10 μM, ATP 10 μM) | JAK2 JH1% Inhibition @ 10 μM (JAK2 kinase domain (JH1); compound at 10 μM, ATP 10 μM)
 |  | 0.2 to 1 | < 50 | < 50 | CNc1cc(Nc2cccn([C@@H]3CCN(CCC#N)C3)c2=O)nc2c(C(=O)NC3CC3)cnn12 [I-1012] |  | 
 |  | 0.2 to 1 | < 50 | < 50 | CNc1cc(Nc2cccn([C@@H]3CCCN(CCF)C3)c2=O)nc2c(C(=O)NC3CC3)cnn12 [I-881] |  | 
< 50 | < 50 | < 0.2 |  |  | CNc1cc(Nc2cccn(-c3ccccn3)c2=O)nc2c(C(=O)N[C@@H]3CC[C@@H]3O)cnn12 [I-743] |  | 
 |  | < 0.2 |  |  | CNc1cc(Nc2cccnc2OC)nc2c(C(=O)N[C@@H]3CCC[C@@H](O)C3)cnn12 [I-497] | A (percent inhibition at 10 μM lower than 50) | A (percent inhibition at 10 μM lower than 50)
 |  | < 0.2 | < 50 | < 50 | CNc1cc(Nc2cccc(-c3cn(C)nc3F)n2)nc2c(C(=O)NC3CC3)cnn12 [I-859] |  | 
< 50 | < 50 | 0.2 to 1 |  |  | CNc1cc(Nc2cccn(C3=NC(C)(C)CS3)c2=O)nc2c(C(=O)NC3CC3)cnn12 [I-502] |  | 
< 50 | < 50 | < 0.2 |  |  | CNc1cc(Nc2cccn([C@H]3CC[C@@H](N4CCOCC4)CC3)c2=O)nc2c(C(=O)N[C@H]3C[C@H]3F)cnn12 [I-304] |  | 
 |  | < 0.2 | < 50 | < 50 | CNc1cc(Nc2cccn(C(C)C)c2=O)nc2c(C(=O)N[C@H]3CC[C@H]3O)cnn12 [I-894] |  | 
 |  | < 0.2 | < 50 | < 50 | CNc1cc(-c2cn(C3CC3)c3ncccc23)nc2c(C(=O)N[C@H]3CC[C@H]3O)cnn12 [I-1080, 5-(1-cyclopropyl-1H-pyrrolo[2,3-b]pyridin-3-yl)-N-((1S,2R)-2-hydroxycyclobutyl)-7-(methylamino)pyrazolo[1,5-a]pyrimidine-3-carboxamide] |  | 
< 50 | < 50 | 0.2 to 1 |  |  | COc1ncccc1Nc1cc(NCCN2CCOCC2)n2ncc(C(=O)N[C@@H]3C[C@@H]3F)c2n1 (stereo in doubt) [I-388, N-((1R,2S)-2-fluorocyclopropyl)-5-((2-methoxypyridin-3-yl)amino)-7-((2-morpholinoethyl)amino)pyrazolo[1,5-a]pyrimidine-3-carboxamide] |  | 
 |  | < 0.2 | < 50 | < 50 | CNc1cc(Nc2cccn(-c3ncccc3F)c2=O)nc2c(C(=O)NC[C@H](C)CO)cnn12 [I-868] |  | 
 |  | 1 to 10 | < 50 | < 50 | CNc1cc(Nc2cccn([C@@H]3CCCC[C@@H]3OC)c2=O)nc2c(C(=O)NCC(C)(C)CO)cnn12 [I-990] |  | 
< 50 | < 50 | < 0.2 |  |  | CNc1cc(Nc2cccn([C@H]3CCCOC3)c2=O)nc2c(C(=O)NCC(C)(C)CO)cnn12 [I-599] |  | 
 |  | 0.2 to 1 | < 50 | < 50 | CNc1cc(Nc2cccn(-c3cccc(F)c3)c2=O)nc2c(C(=O)N[C@@H]3CC[C@@H]3O)cnn12 [I-1005] |  | 
< 50 | < 50 | < 0.2 |  |  | CNc1cc(Nc2cccnc2OC)nc2c(C(=O)NC(C)(C)C#N)cnn12 [I-476, N-(2-cyanopropan-2-yl)-5-((2-methoxypyridin-3-yl)amino)-7-(methylamino)-pyrazolo[1,5-a]pyrimidine-3-carboxamide] |  | 
< 50 | < 50 | < 0.2 |  |  | CNc1cc(Nc2cccn(-c3nc(C)co3)c2=O)nc2c(C(=O)NCC(C)CO)cnn12 (stereo not drawn) [I-663] |  | 
< 50 | < 50 | 0.2 to 1 |  |  | [2H]C([2H])([2H])Oc1ncccc1Nc1cc(NC)n2ncc(C(=O)N[C@@H]3CC[C@@H]3O)c2n1 (stereo in doubt) [I-400, N-((1R,2S)-2-hydroxycyclobutyl)-5-((2-(methoxy-d3)pyridin-3-yl)amino)-7-(methylamino) pyrazolo[1,5-a]pyrimidine-3-carboxamide] |  | 
 |  | 0.2 to 1 | < 50 | < 50 | CNc1cc(Nc2cccn([C@@H]3CCN(C)CC3(F)F)c2=O)nc2c(C(=O)NC3CC3)cnn12 [I-824] |  | 
 |  | 0.2 to 1 |  |  | CNc1cc(Nc2cccnc2OC2CC2)nc2c(C(=O)N[C@@H]3CCC[C@H]3O)cnn12 [I-465, 5-((2-cyclopropoxypyridin-3-yl)amino)-N-((1R,2R)-2-hydroxycyclopentyl)-7-(methylamino)pyrazolo[1,5-a]pyrimidine-3-carboxamide] | A (percent inhibition at 10 μM lower than 50) | A (percent inhibition at 10 μM lower than 50)
< 50 | < 50 | < 0.2 |  |  | [2H]C([2H])([2H])Oc1ncccc1Nc1cc(NC)n2ncc(C(=O)NCCC3(O)CC3)c2n1 [I-470, N-(2-(1-hydroxycyclopropyl)ethyl)-5-((2-(methoxy-d3)pyridin-3-yl)amino)-7-(methylamino)pyrazolo[1,5-a]pyrimidine-3-carboxamide] |  | 
< 50 | < 50 | < 0.2 |  |  | CNc1cc(Nc2cc(Cl)cn(-c3ccnc(C)n3)c2=O)nc2c(C(=O)NC3CC3)cnn12 [I-316] |  | 
